Results on twelve molecules are retold here after ChEMBL document CHEMBL2385069, “Thiourea derivatives incorporating a hippuric acid moiety: synthesis and evaluation of antibacterial and antifungal activities” (2013).

Common to all, as to type: functional
For one assay, the system named is Staphylococcus aureus. Put plainly: Antibacterial activity against Staphylococcus aureus ATCC 29213 assessed as diameter of inhibition zone at 1 mg/ml after 24 hrs by agar well diffusion method. Particulars: ATCC 29213, 24 h, read-out: DIZ. Background: In agar diffusion tests the substance spreads into inoculated agar from a disc or well.
A further assay concerns Bacillus subtilis. Put plainly: Antibacterial activity against Bacillus subtilis ATCC 6633 assessed as diameter of inhibition zone at 1 mg/ml after 24 hrs by agar well diffusion method. Particulars: ATCC 6633, 24 h, read-out: DIZ.
A further assay deals with Klebsiella pneumoniae. Description: Antibacterial activity against Klebsiella pneumoniae ATCC 13883 assessed as diameter of inhibition zone at 1 mg/ml after 24 hrs by agar well diffusion method. Particulars: ATCC 13883, 24 h, read-out: DIZ.
The next assay has as its system Escherichia coli. Put plainly: Antibacterial activity against Escherichia coli ATCC 25922 assessed as diameter of inhibition zone at 1 mg/ml after 24 hrs by agar well diffusion method. The note with it: ATCC 25922, 24 h, read-out: DIZ.
Another assay has as its system Proteus vulgaris. Put plainly: Antibacterial activity against Proteus vulgaris assessed as diameter of inhibition zone at 1 mg/ml after 24 hrs by agar well diffusion method. Particulars: read-out: DIZ.
The subject of the next assay is Pseudomonas aeruginosa. Put plainly: Antibacterial activity against Pseudomonas aeruginosa ATCC 27953 assessed as diameter of inhibition zone at 1 mg/ml after 24 hrs by agar well diffusion method. Particulars: ATCC 27953, 24 h, read-out: DIZ.
A further assay concerns Candida albicans. Description: Antifungal activity against Candida albicans NRRLY-477 assessed as diameter of inhibition zone at 1 mg/ml after 24 hrs by agar well diffusion method. Particulars: NRRLY-477, 24 h, read-out: DIZ.
The subject of another assay is Micrococcus luteus. Description: Antibacterial activity against Sarcina lutea assessed as diameter of inhibition zone at 1 mg/ml after 24 hrs by agar well diffusion method. Particulars: read-out: DIZ.
The test system of another assay is Priestia megaterium. Put plainly: Antibacterial activity against Bacillus megaterium ATCC 9885 assessed as diameter of inhibition zone at 1 mg/ml after 24 hrs by agar well diffusion method. The note with it: ATCC 9885, 24 h, read-out: DIZ.
For a further assay, the system named is Saccharomyces cerevisiae. Put plainly: Antifungal activity against Saccharomyces cerevisiae assessed as diameter of inhibition zone at 1 mg/ml after 24 hrs by agar well diffusion method. The note with it: read-out: DIZ.

As for `O=C(O)CNC(=O)c1ccc(NC(=S)Nc2ccc(F)cc2)cc1`, the zone of inhibition at 1000 µg/mL was found to be 20 mm in the assay on Staphylococcus aureus; 0 mm with Bacillus subtilis; 20 mm with Klebsiella pneumoniae; 22 mm in the assay with Escherichia coli; 20 mm in the assay on Proteus vulgaris; 22 mm with Pseudomonas aeruginosa. For the same molecule, the zone of inhibition at 1000 µg/mL with Candida albicans was found to be 9 mm; in the assay on Micrococcus luteus, 20 mm; with Priestia megaterium it was 15 mm; in the assay with Saccharomyces cerevisiae, 13 mm.
`O=C(O)CNC(=O)c1ccc(NC(=S)Nc2c3ccccc3nc3ccccc23)cc1`: the zone of inhibition at 1000 µg/mL is 20 mm in the assay with Staphylococcus aureus; 12 mm in the assay with Bacillus subtilis; 23 mm in the assay with Klebsiella pneumoniae; 15 mm in the assay on Escherichia coli; 20 mm in the assay with Proteus vulgaris; 15 mm in the assay on Pseudomonas aeruginosa. The zone of inhibition at 1000 µg/mL in the assay with Candida albicans was found to be 11 mm; in the assay with Micrococcus luteus, 0 mm; in the assay with Priestia megaterium, 18 mm; in the assay on Saccharomyces cerevisiae it was 0 mm.
On to `O=C(O)CNC(=O)c1ccc(NC(=S)Nc2ccccc2C(=O)Nc2cccc(C(F)(F)F)c2)cc1`, for which the zone of inhibition at 1000 µg/mL in the assay with Staphylococcus aureus worked out at 0 mm; in the assay on Bacillus subtilis, 16 mm; in the assay on Klebsiella pneumoniae it was 0 mm; in the assay on Escherichia coli, 0 mm; with Proteus vulgaris, 10 mm; in the assay on Pseudomonas aeruginosa, 0 mm. The zone of inhibition at 1000 µg/mL in the assay with Candida albicans was found to be 0 mm; in the assay with Micrococcus luteus it was 0 mm; with Priestia megaterium it was 14 mm; with Saccharomyces cerevisiae, 15 mm.
`CCOc1ccc(NC(=O)c2ccccc2NC(=S)Nc2ccc(C(=O)NCC(=O)O)cc2)cc1`: the zone of inhibition at 1000 µg/mL in the assay on Staphylococcus aureus was found to be 20 mm; in the assay on Bacillus subtilis, 0 mm; in the assay on Klebsiella pneumoniae it was 20 mm; in the assay with Escherichia coli, 0 mm; with Proteus vulgaris it was 15 mm; in the assay with Pseudomonas aeruginosa, 0 mm. Also, the zone of inhibition at 1000 µg/mL with Candida albicans was 9 mm; in the assay with Micrococcus luteus, 0 mm; in the assay with Priestia megaterium, 0 mm; with Saccharomyces cerevisiae, 18 mm.
For the molecule `NS(=O)(=O)c1ccc(NC(=S)Nc2ccc(C(=O)NCC(=O)O)cc2)cc1`, the zone of inhibition at 1000 µg/mL with Staphylococcus aureus came to 14 mm; in the assay with Bacillus subtilis it was 18 mm; in the assay with Klebsiella pneumoniae, 22 mm; with Escherichia coli, 18 mm; in the assay with Proteus vulgaris, 20 mm; in the assay on Pseudomonas aeruginosa, 19 mm. Besides, the zone of inhibition at 1000 µg/mL was 0 mm in the assay with Candida albicans, 20 mm with Micrococcus luteus, 20 mm in the assay on Priestia megaterium and 17 mm in the assay with Saccharomyces cerevisiae.
As for `CC(=O)NS(=O)(=O)c1ccc(NC(=S)Nc2ccc(C(=O)NCC(=O)O)cc2)cc1`, the zone of inhibition at 1000 µg/mL in the assay with Staphylococcus aureus is 15 mm; with Bacillus subtilis, 18 mm; in the assay on Klebsiella pneumoniae, 0 mm; in the assay on Escherichia coli, 0 mm; in the assay with Proteus vulgaris, 0 mm; in the assay with Pseudomonas aeruginosa it was 12 mm. The zone of inhibition at 1000 µg/mL with Candida albicans stood at 0 mm; in the assay with Micrococcus luteus it was 0 mm; in the assay with Priestia megaterium, 20 mm; in the assay with Saccharomyces cerevisiae, 0 mm.
`N=C(N)NS(=O)(=O)c1ccc(NC(=S)Nc2ccc(C(=O)NCC(=O)O)cc2)cc1`: the zone of inhibition at 1000 µg/mL in the assay on Staphylococcus aureus is 0 mm; in the assay on Bacillus subtilis, 16 mm; with Klebsiella pneumoniae, 0 mm; in the assay with Escherichia coli it was 0 mm; in the assay on Proteus vulgaris it was 0 mm; in the assay with Pseudomonas aeruginosa, 0 mm. In addition, the zone of inhibition at 1000 µg/mL in the assay on Candida albicans worked out at 0 mm; with Micrococcus luteus, 0 mm; with Priestia megaterium, 20 mm; in the assay on Saccharomyces cerevisiae, 15 mm.
Consider `O=C(O)CNC(=O)c1ccc(NC(=S)Nc2ccc(S(=O)(=O)Nc3nccs3)cc2)cc1`, for which the zone of inhibition at 1000 µg/mL in the assay on Staphylococcus aureus came to 0 mm; in the assay with Bacillus subtilis it was 15 mm; with Klebsiella pneumoniae it was 0 mm; in the assay with Escherichia coli it was 0 mm; in the assay with Proteus vulgaris, 0 mm; in the assay with Pseudomonas aeruginosa, 30 mm. Besides, the zone of inhibition at 1000 µg/mL with Candida albicans amounted to 0 mm; in the assay on Micrococcus luteus, 0 mm; with Priestia megaterium it was 14 mm; with Saccharomyces cerevisiae it was 0 mm.
On to `O=C(O)CNC(=O)c1ccc(NC(=S)Nc2ccc(S(=O)(=O)Nc3ccccn3)cc2)cc1`, for which the zone of inhibition at 1000 µg/mL with Staphylococcus aureus was determined as 23 mm; in the assay on Bacillus subtilis, 12 mm; in the assay with Klebsiella pneumoniae, 20 mm; with Escherichia coli it was 21 mm; in the assay on Proteus vulgaris, 0 mm; with Pseudomonas aeruginosa, 21 mm. For the same molecule, the zone of inhibition at 1000 µg/mL in the assay on Candida albicans is 11 mm; in the assay on Micrococcus luteus, 0 mm; in the assay on Priestia megaterium, 0 mm; with Saccharomyces cerevisiae, 20 mm.
For `Cc1c(NC(=S)Nc2ccc(C(=O)NCC(=O)O)cc2)c(=O)n(-c2ccccc2)n1C`, the zone of inhibition at 1000 µg/mL is 18 mm with Staphylococcus aureus; 15 mm with Bacillus subtilis; 19 mm in the assay with Klebsiella pneumoniae; 14 mm in the assay with Escherichia coli; 19 mm with Proteus vulgaris; 22 mm with Pseudomonas aeruginosa. The zone of inhibition at 1000 µg/mL is 0 mm in the assay on Candida albicans, 24 mm in the assay with Micrococcus luteus, 18 mm in the assay on Priestia megaterium and 17 mm in the assay on Saccharomyces cerevisiae.
For `O=C(O)CNC(=O)c1ccc(NC(=S)NNC(=O)c2ccccc2)cc1`, the zone of inhibition at 1000 µg/mL was 22 mm with Staphylococcus aureus; 12 mm in the assay on Bacillus subtilis; 20 mm in the assay with Klebsiella pneumoniae; 15 mm with Escherichia coli; 15 mm with Proteus vulgaris; 15 mm in the assay with Pseudomonas aeruginosa. The zone of inhibition at 1000 µg/mL amounted to 9 mm in the assay with Candida albicans, 20 mm with Micrococcus luteus, 10 mm in the assay on Priestia megaterium and 13 mm in the assay on Saccharomyces cerevisiae.
For `O=C(O)CNC(=O)c1ccc(NC(=S)NNC(=O)c2ccncc2)cc1`, the zone of inhibition at 1000 µg/mL in the assay on Staphylococcus aureus is 0 mm; in the assay with Bacillus subtilis, 0 mm; in the assay with Klebsiella pneumoniae, 0 mm; in the assay with Escherichia coli it was 0 mm; with Proteus vulgaris it was 0 mm; in the assay with Pseudomonas aeruginosa, 12 mm. Besides, the zone of inhibition at 1000 µg/mL in the assay on Candida albicans came to 12 mm; in the assay on Micrococcus luteus, 24 mm; in the assay on Priestia megaterium, 23 mm; with Saccharomyces cerevisiae it was 0 mm.
